Measurements reported in patent publication US20250051327A1, “MALT-1 MODULATORS” (EXSCIENTIA AI LIMITED, priority 2020, published 2025).
Structures can show the parent of a compound that is named as a salt.

Legend:
[1] = target: Recombinant human MALT-1 (amino acids 340-824) (Homo sapiens (Human), UniProt Q9UDY8); assay: MALT-1 inhibition assay (fluorogenic substrate Ac-LRSR-Rh110-DP); format: biochemical; settings: recombinant human MALT-1, substrate Ac-LRSR-Rh110-DP
Procedure, shortened: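 Reactions were started with fluorogenic substrate Ac-LRSR-Rh110-DP (10 μM final) against 3 nM enzyme and kept dark at 25° C for 60 minutes. IC50 values came from 4-parameter logistic fits of percent inhibition calculated from relative fluorescence units.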

[2] = system: IL-2 secretion by human effector memory T cells (TEM); assay: Effector memory T cells IL-2 release assay; format: cell-based; settings: T-cell; human CD4+ effector memory T cells, CD3/CD28 bead stimulation, 24 h; read-out: CD4TC IL2 IC50
Procedure, shortened: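 Human CD4+ effector memory T cells from healthy-donor buffy coats were stimulated with anti-CD3/CD28 Dynabeads and exposed to 10 semi-log compound doses (0.1% DMSO) for 24 h at 37 °C. Supernatant IL-2 was measured by HTRF, and IC50 came from a 4-parameter logistic fit to maximal IL-2. Viability was checked by flow cytometry.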

Chain of Recombinant human MALT-1 (amino acids 340-824) (Q9UDY8 340-824): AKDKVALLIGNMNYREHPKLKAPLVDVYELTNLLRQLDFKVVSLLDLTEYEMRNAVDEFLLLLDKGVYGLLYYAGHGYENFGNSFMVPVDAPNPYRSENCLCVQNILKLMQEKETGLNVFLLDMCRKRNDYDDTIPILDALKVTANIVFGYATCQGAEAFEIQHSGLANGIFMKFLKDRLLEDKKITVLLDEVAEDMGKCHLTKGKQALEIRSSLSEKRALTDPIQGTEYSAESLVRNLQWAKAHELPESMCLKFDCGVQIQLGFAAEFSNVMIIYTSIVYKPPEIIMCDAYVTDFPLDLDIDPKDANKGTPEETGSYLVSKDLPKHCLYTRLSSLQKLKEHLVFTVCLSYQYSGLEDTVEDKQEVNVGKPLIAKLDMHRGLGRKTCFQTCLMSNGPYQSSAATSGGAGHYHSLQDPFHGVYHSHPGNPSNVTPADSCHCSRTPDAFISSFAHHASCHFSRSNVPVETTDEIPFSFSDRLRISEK

| IC50 [1] | IC50 [2] | SMILES |
| --- | --- | --- |
| 60 nM | 105 nM | CN(C(=O)[C@H]1C[C@H]([S@+](C)(=N)[O-])C1)[C@@H](c1ccc(N2CCCc3c2cnc2cc(Cl)nn32)cc1)C(F)(F)F [CPD0073226, (1R,3s)-N-[(1S)-1-(4-{4-chloro-2,3,7,10-tetraazatricyclo[7.4.0.0^2,6]trideca-1(9),3,5,7-tetraen-10-yl}phenyl)-2,2,2-trifluoroethyl]-3-[(S)-imino(methyl)oxo-λ^6-sulfanyl]-N-methylcyclobutane-1-carboxamide] |
| 197 nM | 780 nM | CN(C(=O)C1CCS(=O)(=O)CC1)[C@@H](c1ccc(N2CCCc3c2cnc2cc(Cl)nn32)cn1)C(F)(F)F [CPD0073056, N-[(1S)-1-[5-(4-chloro-2,3,7,10-tetrazatricyclo[7.4.0.0^2,6]trideca-1(9),3,5,7-tetraen-10-yl)-2-pyridyl]-2,2,2-trifluoro-ethyl]-N-methyl-1,1-dioxo-thiane-4-carboxamide] |
| 163 nM | 253 nM | CN(C(=O)CN1CCS(=O)(=O)CC1)[C@@H](c1ccc(N2CCCc3c2cnc2cc(Cl)nn32)cc1)C(F)(F)F [CPD0073572, N-[(1S)-1-(4-{4-chloro-2,3,7,10-tetraazatricyclo[7.4.0.0^2,6]trideca-1(9),3,5,7-tetraen-10-yl}phenyl)-2,2,2-trifluoroethyl]-2-(1,1-dioxo-1λ^6-thiomorpholin-4-yl)-N-methylacetamide] |
| 134 nM | 175 nM | CN(C(=O)[C@H]1CCS(=O)(=O)C1)[C@@H](c1ccc(N2CCCc3c2cnc2cc(Cl)nn32)cc1)C(F)(F)F (relative stereo) [CPD0022134, (3rel-R)-N-[(1S)-1-(4-{4-chloro-2,3,7,10-tetraazatricyclo[7.4.0.0^2,6]trideca-1(9),3,5,7-tetraen-10-yl}phenyl)-2,2,2-trifluoroethyl]-N-methyl-1,1-dioxo-1λ^6-thiolane-3-carboxamide] |
| 230 nM | 83 nM | CC(=O)N(C)[C@@H](c1ccc(N2CCCc3c2cnc2cc(Cl)nn32)cc1)C(F)(F)F [CPD0019349, N-[(1S)-1-(4-{4-chloro-2,3,7,10-tetraazatricyclo[7.4.0.0^2,6]trideca-1(9),3,5,7-tetraen-10-yl}phenyl)-2,2,2-trifluoroethyl]-N-methylacetamide] |
| 43 nM | 101 nM | CN(C(=O)[C@@H]1CNC(=O)C1)[C@@H](c1ccc(N2CCCc3c2cnc2cc(Cl)nn32)cc1)C(F)(F)F (stereo in doubt) [CPD0073565, (3rel-S)—N-[(1S)-1-(4-{4-chloro-2,3,7,10-tetraazatricyclo[7.4.0.0^2,6]trideca-1(9),3,5,7-tetraen-10-yl}phenyl)-2,2,2-trifluoroethyl]-N-methyl-5-oxopyrrolidine-3-carboxamide] |
| 76 nM | 86 nM | CN(C(=O)C1CC[S+]([O-])CC1)[C@@H](c1ccc(N2CCCc3c2cnc2cc(Cl)nn32)cc1)C(F)(F)F (some centres unmarked) [CPD0019481] |
| 83 nM | 195 nM | CN(C(=O)C1CCS(=O)(=O)CC1)[C@@H](c1ccc(N2CCCc3c2cnc2cc(F)nn32)cc1)C(F)(F)F [CPD0021664, N-methyl-1,1-dioxo-N-[(1S)-2,2,2-trifluoro-1-(4-{4-fluoro-2,3,7,10-tetraazatricyclo[7.4.0.0^2,6]trideca-1(9),3,5,7-tetraen-10-yl}phenyl)ethyl]-1λ^6-thiane-4-carboxamide] |
| 38 nM | 131 nM | CN(C(=O)[C@@H]1CCC(=O)NC1)[C@@H](c1ccc(N2CCCc3c2cnc2cc(Cl)nn32)cc1)C(F)(F)F (relative stereo) [CPD0073568, (3rel-R)-N-[(1S)-1-(4-{4-chloro-2,3,7,10-tetraazatricyclo[7.4.0.0^2,6]trideca-1(9),3,5,7-tetraen-10-yl}phenyl)-2,2,2-trifluoroethyl]-N-methyl-6-oxopiperidine-3-carboxamide] |

Second part, the compound before the results:

| SMILES | IC50 [1] | IC50 [2] |
| --- | --- | --- |
| COc1ccc2ncc(Nc3ccc([C@H](N(C)C(=O)C4CCS(=O)(=O)CC4)C(F)(F)F)cc3)c(C(C)OC)c2n1 (stereo partly drawn) [CPD0019079, N-methyl-1,1-dioxo-N-[(1S)-2,2,2-trifluoro-1-(4-{[6-methoxy-4-(1-methoxyethyl)-1,5-naphthyridin-3-yl]amino}phenyl)ethyl]-1λ^6-thiane-4-carboxamide] | 147 nM | 102 nM |
| CN(C(=O)C1CN(C(=O)[C@@H]2CCO2)C1)[C@@H](c1ccc(N2CCCc3c2cnc2cc(Cl)nn32)cc1)C(F)(F)F (relative stereo) [CPD0073563, N-[(1S)-1-(4-{4-chloro-2,3,7,10-tetraazatricyclo[7.4.0.0^2,6]trideca-1(9),3,5,7-tetraen-10-yl}phenyl)-2,2,2-trifluoroethyl]-N-methyl-1-[(2rel-S)-oxetane-2-carbonyl]azetidine-3-carboxamide] | 62 nM | 269 nM |
| CNCC(=O)N1CC[C@H](C(=O)N(C)[C@@H](c2ccc(N3CCCc4c3cnc3cc(Cl)nn43)cc2)C(F)(F)F)C1 (relative stereo) [CPD0075880, (3 rel-R)—N-[(1S)-1-[4-(4-chloro-2,3,7,10-tetrazatricyclo[7.4.0.0^2,6]trideca-1(9),3,5,7-tetraen-10-yl)phenyl]-2,2,2-trifluoro-ethyl]-N-methyl-1-[2-(methylamino)acetyl]pyrrolidine-3-carboxamide hydrochloride] | 99 nM | 363 nM |
| CN(C)CC(=O)N1CC[C@H](C(=O)N(C)[C@@H](c2ccc(N3CCCc4c3cnc3cc(Cl)nn43)cc2)C(F)(F)F)C1 (relative stereo) [CPD0075876, (3rel-R)-N-[(1S)-1-[4-(4-chloro-2,3,7,10-tetrazatricyclo[7.4.0.0^2,6]trideca-1(9),3,5,7-tetraen-10-yl)phenyl]-2,2,2-trifluoro-ethyl]-1-[2-(dimethylamino)acetyl]-N-methyl-pyrrolidine-3-carboxamide] | 138 nM | 207 nM |
| CN(C(=O)[C@H]1CC[S@+]([O-])CC1)[C@@H](c1ccc(N2CCC(C)(C)c3c2cnc2cc(F)nn32)cc1)C(F)(F)F (relative stereo) [CPD0072781, (1rel-r,4rel-r)-N-methyl-1-oxo-N-[(1S)-2,2,2-trifluoro-1-(4-{4-fluoro-13,13-dimethyl-2,3,7,10-tetraazatricyclo [7.4.0.02,6]trideca-1(9),3,5,7-tetraen-10-yl}phenyl)ethyl]-1/4-thiane-4-carboxamide] | 60 nM | 75 nM |
| CN(C(=O)CN1CCNCC1)[C@@H](c1ccc(N2CCCc3c2cnc2cc(Cl)nn32)cc1)C(F)(F)F [CPD0021745, N-[(1S)-1-(4-{4-chloro-2,3,7,10-tetraazatricyclo[7.4.0.0^2,6]trideca-1(9),3,5,7-tetraen-10-yl}phenyl)-2,2,2-trifluoroethyl]-N-methyl-2-(piperazin-1-yl)acetamide] | 368 nM | 748 nM |
| CN(C(=O)C1CCS(=O)(=O)CC1)[C@@H](c1ccc(N2CCC(C)(C)c3c2cnc2cc(Cl)nn32)cc1)C(F)(F)F [CPD0019589, N-[(1S)-1-(4-{4-chloro-13,13-dimethyl-2,3,7,10-tetraazatricyclo[7.4.0.0^2,6]trideca-1(9),3,5,7-tetraen-10-yl}phenyl)-2,2,2-trifluoroethyl]-N-methyl-1,1-dioxo-1λ^6-thiane-4-carboxamide] | 38 nM | 32 nM |
| CO[C@@H](C)c1c(Nc2ccc(C(N(C)C(=O)C3CCS(=O)(=O)CC3)C(F)(F)F)cc2)cnn2cc(Cl)nc12 (some centres unmarked) [CPD0072849] | 37 nM | 55 nM |
| CN(C(=O)C1CCN(C(=O)CO)CC1)[C@@H](c1ccc(N2CCCc3c2cnc2cc(Cl)nn32)cc1)C(F)(F)F [CPD0073091, N-[(1S)-1-(4-{4-chloro-2,3,7,10-tetraazatricyclo[7.4.0.0^2,6]trideca-1(9),3,5,7-tetraen-10-yl}phenyl)-2,2,2-trifluoroethyl]-1-(2-hydroxyacetyl)-N-methylpiperidine-4-carboxamide] | 59 nM | 101 nM |
| COc1ccccc1CC(=O)N(C)[C@@H](c1ccc(N2CCCc3c2cnc2cc(Cl)nn32)cc1)C(F)(F)F [CPD0021561, N-[(1S)-1-(4-{4-chloro-2,3,7,10-tetraazatricyclo[7.4.0.0^2,6]trideca-1(9),3,5,7-tetraen-10-yl}phenyl)-2,2,2-trifluoroethyl]-2-(2-methoxyphenyl)-N-methylacetamide] | 63 nM | 900 nM |
| CN(C(=O)c1nn(C)cc1Cl)[C@@H](c1ccc(N2CCCc3c2cnc2cc(Cl)nn32)cc1)C(F)(F)F [CPD0019352, 4-chloro-N-[(1S)-1-(4-{4-chloro-2,3,7,10-tetraazatricyclo[7.4.0.0^2,6]trideca-1(9),3,5,7-tetraen-10-yl}phenyl)-2,2,2-trifluoroethyl]-N,1-dimethyl-1H-pyrazole-3-carboxamide] | 196 nM | 417 nM |
| COc1ccc2ncc3c(c2n1)CCCN3c1ccc([C@H](N(C)C(=O)C2CCS(=O)(=O)CC2)C(F)(F)F)cc1 [CPD0072532, N-methyl-1,1-dioxo-N-[(1S)-2,2,2-trifluoro-1-[4-(2-methoxy-9,10-dihydro-8H-pyrido[2,3-f][1,7]naphthyridin-7-yl)phenyl]ethyl]thiane-4-carboxamide] | 217 nM | 548 nM |
| CN(C(=O)[C@H]1CC[S@@](=N)(=O)CC1)[C@@H](c1ccc(N2CCC(C)(C)c3c2cnc2cc(F)nn32)cc1)C(F)(F)F (relative stereo) [CPD0072782] | 53 nM | 95 nM |
